Activity calls are given as the source filed them. The rule behind the calls is not given here. Some results are limits rather than exact numbers.

This test has as its system Clostridioides difficile clinical isolate growth, OD600, 24 h. Description: inhibitors of Clostridioides difficile proliferation – 4-point retest, confirmation (AID 1224921).
As for `CO[C@@H]1CN(C)C(=O)c2ccc(NC(=O)C3CCC3)cc2OC[C@@H](C)N(C(=O)Nc2ccc(C(F)(F)F)cc2)C[C@H]1C`, the AC50 (commonly the midpoint of the concentration-response curve, whichever way the signal moves) is 11.6 µM.
With `O=C(C[C@@H]1CC[C@@H]2[C@H](COC[C@H](O)CN2Cc2ccc(Oc3ccccc3)cc2)O1)N1CCCCC1` the figure was 20.6 µM.
With `O=C(NCC[C@@H]1CC[C@H](NC(=O)c2cccnc2)[C@@H](CO)O1)Nc1ccc(C(F)(F)F)cc1` the figure was 17 µM; with `CCCNC(=O)C[C@H]1CC[C@@H]2[C@H](COC[C@H](O)CN2C(=O)Nc2ccc(Cl)c(Cl)c2)O1`, 3.77 µM.
As for `CO[C@H]1CN(C)C(=O)c2cc(NC(=O)Nc3ccc(Cl)c(Cl)c3)ccc2OC[C@H](C)NC[C@@H]1C`, the half-maximal activity concentration (AC50) is 8.68 µM.
On to `C[C@H]1CN([C@@H](C)CO)S(=O)(=O)c2ccc(C#Cc3ccc(F)cc3)cc2O[C@@H]1CN(C)C`, for which the AC50 was 34.2 µM.
With `O=C(C[C@H]1CC[C@H]2[C@@H](COC[C@@H](O)CN2C(=O)Nc2ccc(Cl)c(Cl)c2)O1)NCc1ccc(Cl)c(Cl)c1` the figure was 1.08 µM.
With `CO[C@H](CN(C)C(=O)C1CC1)[C@@H](C)CN(C(=O)Nc1ccc(C(F)(F)F)cc1)[C@@H](C)CO` the figure was 6.86 µM; with `CS(=O)(=O)N1[C@H](CO)[C@@H](c2ccc(C#CC3CCCCC3)cc2)[C@@H]1C#N`, 17.6 µM; with `Cn1cnc(CCNC(=O)C[C@@H]2CC[C@@H]3[C@H](COC[C@H](O)CN3C(=O)Nc3ccc(C(F)(F)F)cc3)O2)c1`, 19.6 µM.
With `O=C(C[C@H]1CC[C@H]2[C@@H](COC[C@H](O)CN2C(=O)Nc2ccc(Cl)c(Cl)c2)O1)NC1CCC1` the figure was 2.03 µM; with `CO[C@H]1CN(C)C(=O)c2cc(NC(C)=O)ccc2OC[C@@H](C)N(Cc2nccs2)C[C@@H]1C`, > 60 µM (inactive); with `C[C@H](CO)N1C[C@H](C)[C@@H](CN(C)CC2CCCCC2)OCCCC[C@H](C)Oc2ccc(NC(=O)Nc3ccc(C(F)(F)F)cc3)cc2C1=O`, 13.6 µM.
Regarding `C[C@@H]1CN([C@H](C)CO)C(=O)c2cc(NS(=O)(=O)c3ccc(Cl)cc3)ccc2O[C@@H](C)CCCCO[C@H]1CN(C)Cc1ccc(C(F)(F)F)cc1`, the AC50 is > 60 µM (inactive).
On to `O=C(C[C@H]1CC[C@H]2[C@@H](COC[C@H](O)CN2C(=O)Nc2ccc(C(F)(F)F)cc2)O1)NCC1CCCCC1`, for which the AC50 is 2.45 µM.
With `CC(=O)N[C@@H]1CC[C@@H](CCNC(=O)Nc2ccc(C(F)(F)F)cc2)O[C@@H]1CO` the figure was 8.39 µM.
With `C[C@@H]1CN([C@H](C)CO)C(=O)c2cc(NC(=O)Nc3ccc(C(F)(F)F)cc3)ccc2O[C@@H](C)CCCCO[C@@H]1CN(C)CC1CCCCC1` the figure was 14.6 µM; with `O=C(C[C@H]1CC[C@H]2[C@@H](COC[C@H](O)CN2C(=O)Nc2cc(Cl)cc(Cl)c2)O1)N1CCCCC1`, 3.29 µM.
With `CO[C@@H](CN(C)Cc1cc(F)ccc1F)[C@H](C)CN(C(=O)Nc1ccc(C(F)(F)F)cc1)[C@H](C)CO` the figure was 5.25 µM; with `CN(C)CC(=O)N[C@@H]1CC[C@@H](CCNC(=O)Nc2ccc(C(F)(F)F)cc2)O[C@@H]1CO`, 4.58 µM; with `CO[C@@H](CN(C)C(=O)C1CC1)[C@H](C)CN(C(=O)Nc1ccc(C(F)(F)F)cc1)[C@@H](C)CO`, 3.04 µM.
On to `O=C(C[C@H]1CC[C@H]2[C@@H](COC[C@H](O)CN2S(=O)(=O)c2ccccc2)O1)NCC1CCCCC1`, for which the half-maximal activity concentration (AC50) is 13.5 µM.
With `O=C(NCC[C@H]1CC[C@@H](NC(=O)C2CC2)[C@@H](CO)O1)Nc1ccc(C(F)(F)F)cc1` the figure was 1.69 µM.
Take `O=C(NCC[C@@H]1CC[C@H](NC(=O)C2CC2)[C@@H](CO)O1)Nc1ccc(C(F)(F)F)cc1`: the concentration at half-maximal activity (AC50) was 1.95 µM.
With `C[C@H](CO)N1C[C@H](C)[C@H](CN(C)C(=O)Nc2cccc3ccccc23)Oc2c(NC(=O)Nc3ccc(C(F)(F)F)cc3)cccc2C1=O` the figure was 31.7 µM; with `O=C(C[C@H]1CC[C@@H]2[C@H](COC[C@H](O)CN2C(=O)Nc2ccc(C(F)(F)F)cc2)O1)NC1Cc2ccccc2C1`, 6.36 µM; with `CO[C@H](CN(C)C(=O)C1CC1)[C@@H](C)CN(C(=O)Nc1ccc(C(F)(F)F)cc1)[C@H](C)CO`, 3.59 µM.
With `C[C@@H]1CN([C@@H](C)CO)C(=O)c2cc(NC(=O)Nc3ccc(C(F)(F)F)cc3)ccc2O[C@@H](C)CCCCO[C@H]1CN(C)Cc1ccc2c(c1)OCO2` the figure was 23.9 µM; with `COC(=O)[C@H]1[C@H](CO)[C@H]2Cn3c(ccc(-c4ccccc4)c3=O)[C@H]2N1CC1CCCCC1`, 16.7 µM; with `CN(C)CC(=O)N1[C@H](C#N)[C@H](c2ccc(C#CC3CCCCC3)cc2)[C@H]1CO`, 14.2 µM.
With `O=C(C[C@H]1CC[C@@H]2[C@H](COC[C@@H](O)CN2S(=O)(=O)c2ccccc2)O1)NCC1CCCCC1` the figure was 15.5 µM; with `CCCNC(=O)C[C@H]1CC[C@@H]2[C@H](COC[C@@H](O)CN2C(=O)Nc2ccc(Cl)c(Cl)c2)O1`, 2.91 µM; with `C[C@@H]1CN([C@@H](C)CO)C(=O)c2cccc(NC(=O)Nc3ccc(C(F)(F)F)cc3)c2O[C@@H]1CN(C)CC1CCCCC1`, 3.63 µM.
As for `CCCNC(=O)C[C@@H]1CC[C@H]2[C@@H](COC[C@@H](O)CN2C(=O)Nc2ccc(Cl)c(Cl)c2)O1`, the concentration at half-maximal activity (AC50) was 2.59 µM.
With `C[C@@H]1CN([C@@H](C)CO)C(=O)c2cc(NC(=O)C3CC3)ccc2O[C@@H]1CN(C)C(=O)Nc1ccc(C(F)(F)F)cc1` the figure was 8.92 µM; with `CO[C@H]1CN(C)C(=O)c2cc(NC(=O)Nc3cc(Cl)cc(Cl)c3)ccc2OC[C@@H](C)NC[C@@H]1C`, 14.7 µM; with `CC(=O)N[C@@H]1CC[C@@H](CCNC(=O)Nc2ccc(C(F)(F)F)cc2)O[C@H]1CO`, 12.7 µM.
With `C[C@H]1CN([C@@H](C)CO)S(=O)(=O)c2ccc(C#CC3CCCCC3)cc2O[C@H]1CN(C)C` the figure was 16.4 µM.
Take `CO[C@@H]1CN(C)C(=O)c2ccc(NC(=O)C3CCOCC3)cc2OC[C@@H](C)N(C(=O)Nc2ccc(C(F)(F)F)cc2)C[C@H]1C`: the concentration at half-maximal activity (AC50) was 16.1 µM.
With `CO[C@H](CN(C)C(=O)C1CCOCC1)[C@@H](C)CN(C(=O)Nc1ccc(C(F)(F)F)cc1)[C@@H](C)CO` the figure was 3.16 µM; with `CO[C@H](CN(C)C(=O)C1CCOCC1)[C@H](C)CN(C(=O)Nc1ccc(C(F)(F)F)cc1)[C@@H](C)CO`, 4.13 µM; with `C[C@@H]1CN([C@H](C)CO)C(=O)Cc2cc(NC(=O)CCCN(C)C)ccc2O[C@H]1CN(C)Cc1ccc(-c2ccccc2)cc1`, 19 µM.
For the compound `COc1ccc(CN(C)C[C@H]2OCCCC[C@@H](C)Oc3ccc(NC(=O)Nc4ccc(C(F)(F)F)cc4)cc3C(=O)N([C@@H](C)CO)C[C@@H]2C)cc1`, the AC50 was 4.74 µM.
With `CO[C@@H](CN(C)S(=O)(=O)c1cn(C)cn1)[C@H](C)CN(C(=O)Nc1ccc(C(F)(F)F)cc1)[C@@H](C)CO` the figure was 2.44 µM; with `O=C(C[C@@H]1CC[C@@H]2[C@H](COC[C@@H](O)CN2C(=O)Nc2ccc(C(F)(F)F)cc2)O1)NCC1CCCCC1`, 2.03 µM; with `O=C(C[C@H]1CC[C@@H]2[C@H](COC[C@H](O)CN2C(=O)Nc2ccc(Cl)c(Cl)c2)O1)NCc1ccc(Cl)c(Cl)c1`, under 0.5 µM.
With `CCNC(=O)C[C@@H]1CC[C@H]2[C@@H](COC[C@@H](O)CN2C(=O)Nc2ccc(Cl)c(Cl)c2)O1` the figure was 2.6 µM.
With `O=C(NCC[C@@H]1CC[C@@H](NC(=O)c2cccnc2)[C@@H](CO)O1)Nc1ccc(C(F)(F)F)cc1` the figure was 13.8 µM.

The values above are taken from PubChem BioAssay AID1224921 (Broad Institute, 2016).
